Experimental findings from a melting point compilation (Tetko et al.; mined from patent text by program, amines drawn as free bases though some values may be those of a salt) are described below.

The structures appear in SMILES notation.

As a reminder, the melting point is the temperature of the solid-liquid transition.

Regarding `O=S(=O)(Nc1cccnc1Nc1ccccc1)c1ccc(O)cc1`, the melting point is 226 to 228 °C.
As for `CCN(CC)c1nc2ccccc2n2c(C(C)C)nnc12`, the melting point is 93 to 95 °C.
Then `O=C(O)c1cccc(Oc2ccc(O)cc2)c1`, with 163 to 166 °C; and `OCCCNc1nc2ccccc2n1-c1ccccc1`, with 116 to 118 °C.
`Cn1cc(-c2ccccc2)c(=O)c(-c2ccc(F)cc2)c1` gave a melting point of 166 °C.
`ClCCOc1ccc2c(c1)oc1cc(Cl)ccc12`: the melting point was 105 to 107 °C.
The compound `CCCCC(CC)CNc1nc(N)nc(N)n1` (configuration not stated) yielded a melting point of 81 °C.
Then `NC(=NC(=O)c1nc(Cl)c(N)nc1N)NCCCCc1ccc(OCC(=O)N(CCO)CCO)cc1`, with 114 to 116 °C; and `COc1nncc(-c2ccccc2)n1`, with 73 to 74 °C; and `CC1(C)CC(=O)c2c(ncc3[nH]c4cc(F)ccc4c23)C1`, with 271 to 273 °C.
The compound `COc1ccc(CNc2nc(-c3ccco3)c3ncn(Cc4ccc(OC)cc4)c3n2)cc1` had a melting point of 153 to 154 °C.
Regarding `O=C(O)CN(C(=O)c1ccccc1S)C1CCCC1`, the melting point lay within 148 to 150 °C.
For `COc1ccc(-n2nc(S)nc2-c2ccccc2)cc1`, the melting point stood at 260 °C.
In the case of `CCOC(=O)COc1ccc([N+](=O)[O-])cc1Cl`, the melting point is 73 to 74 °C.
With `COC(=O)[C@@H](CC(C)C)NC(=O)C[C@H]1O[C@H](c2cccc(OC)c2OC)c2cc(Cl)ccc2N(CC(CO)(OC)OC)C1=O`, the melting point was 110 to 111 °C.
For the compound `Cc1ccc2oc(=O)c(-c3cc(O)c(O)c(C#N)c3)nc2c1`, the melting point lay within 278 to 280 °C.
With `CC(C)(S)CN1CCN(C(=O)c2ccc(O)cc2)CC1`, the melting point amounted to 46 °C.
Under `COC(=O)CCC(O)C(=O)OC(C)(C)C` (configuration not stated) stands 36 to 37 °C.
For `CC(=O)Nc1nc(Oc2ccccc2)nc2nc(-c3ccco3)nn12`, the melting point is 168 to 170 °C.
Regarding `CCN(CC)c1ccc2cc(C(=O)NN)oc2c1`, the melting point was 127 to 129 °C.
On to `O=c1[nH]c2ccc(CCN3CCN(c4nncc5ccccc45)CC3)cc2o1`, for which the melting point worked out at 200 °C.
The compound `CCCc1c(O)ccc2[nH]c(C(=O)OCC)cc12` displayed a melting point of 185 to 186 °C.
`CCCCCCCCCCCCSC(=S)SSC(=S)SCCCCCCCCCCCC` displayed a melting point of 33 to 35 °C.
On to `c1ccc(N2CCN(Cc3c[nH]c4ncccc34)CC2)cc1`, for which the melting point is 207 to 209 °C.
For the compound `Cn1cccc1-c1cc(O)c2ncccc2c1O`, the melting point was 142 to 143 °C.
Consider `CC(=O)Oc1c(C(C)(C)C)cc2occc2c1C(C)(C)C`, for which the melting point was 87.7 °C.
`CC(C)(C)C(NC(=O)c1ccc(Cl)cc1)Nc1c(Nc2ccc(Cl)nc2)c(=O)c1=O` (configuration not stated) showed a melting point of 258 to 259 °C.
In turn, `O=C1c2ccccc2C(=O)c2sc(-c3ccco3)nc21` displayed a melting point of over 260 °C.
The compound `CCOC(=O)/C=C/c1cc(-c2ccccc2)nn1Cc1ccc(Cl)cc1Cl` gave a melting point of 123 to 124 °C.
`O=C(CN1CCC(O)CC1)Nc1cccc2c1C(=O)c1c-2n[nH]c1-c1ccc(N2CCOCC2)cc1` came in with a melting point of 245 °C.
Under `Nc1ccc(Cl)cc1C1=CCN(C/C=C/c2ccc(Cl)cc2)CC1` stands 168 to 170 °C; under `O=C1CC(c2ccc(-c3ccc(Br)cc3)cc2)Cc2ccccc21` (configuration not stated), 156 to 158 °C.
Turning to `CC(C)(C)c1ccc2c(c1)C(=O)CC2`, the melting point is 94 to 96 °C.
In turn, `Cc1ccc(C(=O)Nc2ccc3ccc(Cl)nc3n2)cc1` registered a melting point of 228 °C.
Under `Cc1cc(-c2nc3cc(C(C)(C)C)c(Cl)nn3c2-c2ccnc(N)c2)ccc1F` stands 232 to 233 °C.
`NC1=CN(Cc2ccc(Cl)cc2)CN=C1` returned a melting point of 128 to 129 °C.
`c1ccc2cc3sccc3cc2c1` registered a melting point of 193 to 194 °C.
The compound `COc1cc(C=C(C(C)=O)C(C)=O)cc(OC)c1OC` gave a melting point of 83 to 86 °C.
`C=C1C[C@@H]2[C@H](CC[C@]3(C)C(=O)CC[C@@H]23)[C@@]2(C)CCC(=O)C(OC(C)=O)=C12` showed a melting point of 183 to 185 °C.
As to `CN(CCCSc1ccncc1)C(=O)c1cccs1`, the melting point is 72 to 72.5 °C.
Under `O=C(CCCCl)Nc1cn(-c2cccnc2)nc1Cl` stands 97 to 98 °C; under `O=C(NCC1(O)CCCCCC1)c1cc(-c2cccnc2N2CCC(C(=O)O)CC2)ccc1Cl`, 117 to 119 °C.
Consider `COc1ccc(-c2noc3cc(OC)ccc23)c(C)c1`, for which the melting point lay within 126 to 128 °C.
Under `CCOC(=O)c1cn(CC)c2nc3cc(F)c(F)cc3cc2c1=O` stands 270 °C; under `OCc1cccc(-c2nn(-c3ccc(F)cc3F)c3c2C2CCC3C2)c1` (configuration not stated), 113 to 115 °C.
For the compound `Nc1ccc(C=C2c3ccccc3C=Cc3ccccc32)cc1`, the melting point lay in the range of 119 to 120 °C.
In the case of `NC(=O)C(O)c1cc(F)cc2cccnc12` (configuration not stated), the melting point was 169 to 171 °C.
Then `NS(=O)(=O)c1cc(C(=O)c2ccccc2)ccc1Cl`, with 183 to 185 °C; and `CC(C)CCn1cc(C(=O)O)c2ccc(Cl)cc21`, with 53 to 55 °C.
Take `CCOC(=O)C1Cc2cc(OC)c(OC)cc2C1=O` (configuration not stated): the melting point lay within 140 to 141 °C.
Under `CC1(C)CC(=O)C2=C(C1)NC1=C(C(=O)CC(C)(C)C1)C2c1cccc(Oc2ccccc2)c1` stands 205 to 207 °C; under `COC(=O)c1c(Sc2ccc(OC)cc2)nc(C)n1Cc1cc2c(cc1Cl)OCO2`, 152 °C; under `CCCC1C(=O)Oc2c(Oc3ccccc3Cl)cccc21` (configuration not stated), 51 to 53 °C.
In turn, `Cc1ccn(Cc2ccc(Cl)c(Cl)c2)c(=O)c1C#N` showed a melting point of 178 to 180 °C.
Under `CCCCc1ncc(CCC(=O)O)n1Cc1ccccc1Cl` stands 164 °C; under `NC(=O)Nc1ccc2c(c1)C(CN1CCC(c3ccc(F)cc3)CC1)CC2` (configuration not stated), 172 to 174 °C.
`CCCCNc1ccc2cc(Cl)cnc2c1C#N` returned a melting point of 89 °C.
Under `CC1(O)CCC2(C)C(CCC3C2CCC2(C)C(c4cn5ccccc5n4)CCC32)C1` (configuration not stated) stands 225 to 226 °C.
Consider `CC(=O)Oc1ccc(CCCC2CC(=O)OC(=O)C2)cc1`, for which the melting point lay in the range of 55 to 57 °C.
Turning to `Nc1cc2[nH]c(=O)c(=O)[nH]c2cc1[N+](=O)[O-]`, the melting point is over 330 °C.
As for `COc1ccccc1NC(=O)CN1C(=O)c2ccccc2C1=O`, the melting point was 211 °C.
In turn, `O=C(c1ccc(F)cc1)c1ccc2nc(Cl)nc(-c3cccc(Cl)c3)c2c1` returned a melting point of 138 °C.
As for `CCOC(=O)N(c1ccccc1)c1cc(Cl)ccc1-n1nc(C(=O)O)nc1CCl`, the melting point was in the range of 115 to 117 °C.
As for `Cc1cc2c(N=C3SC[C@@H]4Cc5ccccc5CN34)cccc2cn1`, the melting point came to 181 °C.
Then `O=C(O)Cc1c(C(=O)c2cccc(O)c2)[nH]c2cc(Cl)ccc12`, with 213 to 215 °C.
Regarding `O=C(c1ccc(Cl)cc1)C(Br)CCCl` (configuration not stated), the melting point stood at 73 °C.
`CC(C)Oc1c(C(=O)O)n(C)c2ccc(OCc3ccccc3)cc12` came in with a melting point of 136 °C.
For the compound `CCN1C(=O)C(C)(C)C(=O)N(C)c2cc(CN(CCn3ccc4oc(COC)cc4c3=O)Cc3cccnc3C)ccc21`, the melting point lay within 123 to 126 °C.
`NC(=O)C(Cl)(Cl)CC1(c2cc(Cl)cc(Cl)c2)CO1` (configuration not stated) gave a melting point of 130 to 133 °C.
Compound `O=C(O)C1=C(c2ccccc2)c2cc(Cl)ccc2OC1C(F)(F)F` (configuration not stated) showed a melting point of 226 to 227 °C.
As to `CCOc1c(Cl)cc([N+](=O)[O-])c(OCC)c1[N+](=O)[O-]`, the melting point turned out to be 78 °C.
Compound `C#CCC(CC#C)(C(=O)NO)S(=O)(=O)c1ccc(OC)cc1` returned a melting point of 156 °C.
Under `COC(=O)C1Cc2c(ncn2Cc2ccccc2)CN1Cc1ccccc1` (configuration not stated) stands 91 to 93 °C; under `COc1ccc(CN(Cc2ccc(OC)cc2)c2nc(-c3ccccc3)c(-c3ccc(=O)n(C(C)C)n3)nc2C(N)=O)cc1`, 120 to 122 °C.
As to `O=C(O)CCCC/C=C/c1ccccc1CO`, the melting point was 92 to 94.5 °C.
For `CCCc1cc(CCC)c2oc(Cc3ccc(OC)cc3)c(C)c2c1O`, the melting point lay within 70 to 72 °C.
In turn, `CCOC(=O)c1c(O)c2ccccc2[nH]c1=O` yielded a melting point of 173 °C.
For `c1coc(-c2ccnc3[nH]c4ccccc4c23)c1`, the melting point was over 220 °C.
In turn, `CCCN(CCC)C(=O)c1cc(C)cc(C(=O)N[C@@H](Cc2cc(F)cc(F)c2)[C@@H](O)CCN)c1` showed a melting point of 61 to 72 °C.
Compound `N#Cc1cn(-c2ccccc2)nc1-c1ccc([N+](=O)[O-])o1` displayed a melting point of 190 to 192 °C.
`CCOc1cccc(-c2cnn3c(-c4cccc(NC(=O)CC(C)C)c4)ccnc23)c1` had a melting point of 156 to 158 °C.
Then `O=C1NC(=O)N2Cc3ccccc3CC12` (configuration not stated), with 225 to 231 °C.
The compound `O=C(O)c1ccc(COc2ccc3c(c2)CCC(CCN2CCCCC2)C3)cc1` (configuration not stated) registered a melting point of 105 to 108 °C.
Then `S=c1cc(Oc2c(Cl)cccc2Cl)c2cc(Cl)ccc2s1`, with 208 to 210 °C; and `CCOC(=O)c1c(C)nc(Cl)c([N+](=O)[O-])c1NC(C)CC` (configuration not stated), with 33 to 35 °C; and `Cc1ccnc(-c2cc(C)cc(C#N)n2)c1`, with 132 °C.
Regarding `O=C1Nc2ccccc2OCC1N1C(=O)c2ccccc2C1=O` (configuration not stated), the melting point lay within 188 to 193 °C.
Then `O=[N+]([O-])c1cn2c(n1)O[C@@H](COc1ccc(N3CCN(S(=O)(=O)C(F)(F)C(F)(F)C(F)(F)C(F)(F)F)CC3)cc1)CC2`, with 235 to 236 °C; and `CN(c1cccc2cc(C3=NCC(C)(C(N)=O)S3)[nH]c12)S(=O)(=O)c1cccs1` (configuration not stated), with 248 to 249 °C; and `CC(=O)Nc1ccc(N=C=S)cc1O`, with 68 to 70 °C.
Turning to `ClCc1coc(-c2cccc(OCc3ccccc3)c2)n1`, the melting point fell in the range of 49 to 50 °C.
`CCCCN(CCCC)CCCOc1ccc(-c2cn3cccc(C)c3n2)cc1OC`: the melting point lay within 127 to 130 °C.
